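96-well plates; 48 h exposure; 5 concentrations. Endpoints by linear interpolation between flanking doses. Not reached: highest tested concentration assigned. At the GI50, growth is halved.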 Calls of active or inactive are those of the source. Rule as the data show it: active = GI50 up to about 1.1 µM and inactive = higher. Non-standard residues stand in square brackets, D forms with d. Residues, ends and D or L forms follow the SMILES beside them. ξ: configuration not given here. *: point of attachment. X18 = COC1=CC(=O)N(C(=O)C(O*)C(C)C)C1Cc1ccccc1; ξNMe2Val = CC(C)C(C(=O)*)N(C)C; NMeV = CN[CH](C(=O)O)C(C)C
Columns and labels:
Test in all cases: DTP human tumour cell line panel, 48 h
NCI-H23 = system: NCI-H23
SN12C = system: SN12C
SF-295 = system: SF-295
U-251 = system: U-251
A549 = system: A549
A498 = system: A498
SK-OV-3 = system: SK-OV-3
NCI/ADR-RES = system: NCI/ADR-RES
UACC-257 = system: UACC-257
DLD-1 = system: DLD-1
OVCAR-8 = system: OVCAR-8
SK-MEL-2 = system: SK-MEL-2
SNB-75 = system: SNB-75
MCF7 = system: MCF7
KM12 = system: KM12
OVCAR-3 = system: OVCAR-3
XF498 = system: XF498
MDA-MB-435 = system: MDA-MB-435
PC-3 = system: PC-3
MDA-N = system: MDA-N

SMILES	GI50 (NCI-H23)	GI50 (SN12C)	GI50 (SF-295)	GI50 (U-251)	GI50 (A549)	GI50 (A498)	GI50 (SK-OV-3)	GI50 (NCI/ADR-RES)	GI50 (UACC-257)	GI50 (DLD-1)	GI50 (OVCAR-8)	GI50 (SK-MEL-2)	GI50 (SNB-75)	GI50 (MCF7)	GI50 (KM12)	GI50 (OVCAR-3)	GI50 (XF498)	GI50 (MDA-MB-435)	GI50 (PC-3)	GI50 (MDA-N)
CC1C(=O)OC2CC[N+]3(CC(=O)c4ccc(Br)cc4)CC=C(COC(=O)C(C)(O)C1(C)O)C23 (centres undefined)	> 375 µM (inactive)	> 375 µM (inactive)	> 375 µM (inactive)	> 375 µM (inactive)	> 375 µM (inactive)	> 375 µM (inactive)	> 375 µM (inactive)	> 375 µM (inactive)	> 375 µM (inactive)	> 375 µM (inactive)	37.5 µM (inactive)	> 375 µM (inactive)	> 375 µM (inactive)	> 375 µM (inactive)	> 375 µM (inactive)	> 375 µM (inactive)	259 µM (inactive)	–	–	–
O=C(N/C(=C\c1cccc([N+](=O)[O-])c1)c1nc2c(O)nc(S)nc2[nH]1)c1ccccc1	> 100 µM (inactive)	> 100 µM (inactive)	> 100 µM (inactive)	> 100 µM (inactive)	> 100 µM (inactive)	> 100 µM (inactive)	> 100 µM (inactive)	–	> 100 µM (inactive)	> 100 µM (inactive)	> 100 µM (inactive)	> 100 µM (inactive)	> 100 µM (inactive)	–	> 100 µM (inactive)	> 100 µM (inactive)	> 100 µM (inactive)	–	–	–
Nc1nc(=O)[nH][nH]1	> 100 µM (inactive)	> 100 µM (inactive)	> 100 µM (inactive)	> 100 µM (inactive)	> 100 µM (inactive)	> 100 µM (inactive)	> 100 µM (inactive)	> 100 µM (inactive)	> 100 µM (inactive)	> 100 µM (inactive)	> 100 µM (inactive)	> 100 µM (inactive)	> 100 µM (inactive)	> 100 µM (inactive)	> 100 µM (inactive)	> 100 µM (inactive)	> 100 µM (inactive)	–	–	–
COC1=CC(=O)N(C(=O)C(OC(=O)C2CCCN2C(=O)C2CCCN2C(=O)C(C(C)C)N(C)C(=O)C(NC(=O)C(C(C)C)N(C)C)C(C)C)C(C)C)C1Cc1ccccc1 (centres undefined) (ξNMe2Val-V[NMeV]PP-X18; configuration not given here)	0.00315 µM (active)	0.00188 µM (active)	0.00161 µM (active)	0.00235 µM (active)	0.00955 µM (active)	0.00424 µM (active)	0.00485 µM (active)	0.0234 µM (active)	0.0025 µM (active)	0.00108 µM (active)	0.00201 µM (active)	0.000902 µM (active)	0.0018 µM (active)	0.00024 µM (active)	0.00238 µM (active)	0.000327 µM (active)	0.000308 µM (active)	51.3 pM (active)	0.00158 µM (active)	36.1 pM (active)

— ChEMBL document CHEMBL1201862, “PubChem BioAssay data set” (2004)
